# Measurements: US10370378B2, “Treatment of sleep disorders” (Evotec International GmbH, priority 2007, dated 2019)
# Legend:
# Assay type in all cases: in vivo, human
# [1] = Example 2: single and repeat dose pharmacokinetic, safety and pharmacodynamic study; settings: healthy volunteers, oral
# Procedure: A single and repeat dose pharmacokinetic safety and pharmacodynamic study of the effects of the compound of formula (II) was conducted using healthy volunteers. The compound of formula (II) in free base form was administered orally in 1 mg, 1.5 mg, 2 mg and 2.5 mg doses via a hard gelatine capsule containing the compound in powder form.
# [2] = tested on: primary insomnia in adult patients; test: Example 3: placebo-controlled crossover study in primary insomnia, adult patients younger than 65 (PSG, patient reports, DSST, safety); settings: for Number of Patients with Any Event / Number of Patients with Headache / Number of Patients with Somnolence: number (percent)
# Procedure: A randomized, multicenter, double-blind, placebo-controlled crossover study was conducted to assess the efficacy of the 1.5 mg and 2.5 mg doses of the compound of formula (II) in the treatment of primary insomnia in adult patients. Specifically, one of the objectives of the study was to asses the efficacy of 1.5 mg and 2.5 mg doses on PSG and patient-reported measures of sleep. Also, the study was aimed at assessing the safety of 1.5 mg and 2.5 mg doses.
# The study in this Example was performed for two consecutive nights with a 5-12 day washout between each period. The dosing was conducted 30 minutes before lights were turned out for the night via oral administration of a hard gelatine capsule containing the compound of formula (II) (free base) in powder form. PSG was taken for 8 hours from “lights out” on nights 1 and 2 of each treatment period. Centralized scoring of PSG was used. Testing for residual effects using the Digit Symbol Substitution Test (DSST) was performed at least 30 minutes after wake time (9 hours post dose).
# The study was conducted using 67 subjects younger than 65 years of age (21 males, 46 females; mean age 45.1 yrs, range 23-64 yrs) with a documented diagnosis of primary insomnia (DSM-IV criteria). These subjects' typical bed time was between 9 pm and 1 am with at least 7 hours in bed. These subjects reported sleep latency of at least 45 minutes and TST of not more than 6.5 hours in a sleep diary for at least 3 of 7 nights.
# Mean WASO of the patients was at least 40 minutes and mean TST was 240-420 minutes.
# [3] = tested on: primary insomnia, subjects at least 65 years old; test: Example 4: placebo-controlled parallel group study, 7 nights dosing, elderly subjects with primary insomnia; settings: for Number of subjects with any event (%): number (percent); for Adjusted mean LPS / Adjusted mean TST / Adjusted mean WASO: PSG, average of nights 1, 6 and 7; for LPS % change from placebo / WASO % change from placebo: decrease; for TST % change from placebo: increase
# Procedure: A randomized, double-blind, placebo-controlled parallel group design was used to assess the hypnotic efficacy of 1.5 mg and 2.5 mg doses of the compound of formula (II) following 7 nights dosing using 149 subjects. The study was conducted in 20 sleep laboratories in the United States using both objective and subjective measures. PSG data was collected on nights 1, 6 and 7 and results are based on the mean data from these three nights. The compound of formula (II) was administered in free base form as a powder in a capsule.
# The subjects were males and females at least 65 years old with a documented diagnosis of primary insomnia (DSM-IV criteria). These subjects' typical bed time was between 9 pm and 1 am with at least 7 hours in bed. These subjects reported five nights or more in seven days with TST of not more than 6.5 hours with at least 7 hours in bed. […] On screening using PSG for 2 nights, mean TST was 240-420 minutes. Mean latency in Multiple Sleep Latency Test (MSLT) was at least 5.5 minutes and not more than 14 minutes.
# PSG was used to obtain TST (average of nights 1, 6 and 7). The daytime function (day 8) was measured using Psychomotor Vigilance Task (PVT), MSLT (MSLT Clinical Guidelines; Sleep, 1(3): 260-276 (1992)), Karolinska Sleepiness Scale (KSS); and objective measures Rey Auditory Verbal Learning Test (RAVLT) (day 8) (assessed 30±10 minutes after lights-on). Sleep architecture, subject reported sleep variables and categorical rating of sleep quality and safety endpoints including the Benzodiazepine Withdrawal Questionnaire were also determined.
# [4] = 1.5 mg and 2.5 mg, across 7 nights
smiles,measurement,setting,value
"CN(C)Cc1nc(-c2ncn3c2CN(C)C(=O)c2c(Cl)cccc2-3)no1 [compound of formula (II), 7-chloro-3-(5-dimethylaminomethyl-[1,2,4]oxadiazol-3-yl)-5-methyl-4,5-dihydro-imidazo[1,5-a][1,4]benzodiazepine-6-one]",effect of food on the extent of absorption,[1],little or no effect
same,pharmacokinetic profile on day 14 after repeat dosing compared to day 1,[1],no significant differences
same,Number of Patients with Any Event,[2]; 1.5 mg (n = 71),13 (18.3%)
same,Number of Patients with Headache,[2]; 1.5 mg (n = 71),3 (4.2%)
same,Number of Patients with Somnolence,[2]; 1.5 mg (n = 71),2 (2.8%)
same,safety and tolerability,[2]; 1.5 mg and 2.5 mg doses,safe and well-tolerated
same,patient-reported residual sedation effects compared with placebo,[2]; 1.5 mg or 2.5 mg,no patient-reported residual sedation effects
same,Number of Patients with Any Event,[2]; 2.5 mg (n = 71),18 (25.4%)
same,Number of Patients with Headache,[2]; 2.5 mg (n = 71),6 (8.5%)
same,Number of Patients with Somnolence,[2]; 2.5 mg (n = 71),4 (5.6%)
same,total time awake during each hour after dosing,"[2]; 2.5 mg, each hour except hour 7 (p 0.0577)",statistically significant reduction
same,REM sleep (sleep architecture),[2]; 1.5 and 2.5 mg,only a small effect
same,slow wave sleep (sleep architecture),[2]; 1.5 and 2.5 mg,no impairment
same,patient reported sleep quality,[2]; 1.5 and 2.5 mg doses,marked improvement
same,DSST scores compared with placebo,[2]; 9 hours after dose,only slightly lower
same,increase of mean TST compared to placebo,[3]; 1.5 mg,30.9 min
same,"Dizziness, number of subjects (%)",[3]; 1.5 mg (n = 53),3 (5.7)
same,"Headache, number of subjects (%)",[3]; 1.5 mg (n = 53),5 (9.4)
same,"Somnolence, number of subjects (%)",[3]; 1.5 mg (n = 53),1 (1.9)
same,Number of subjects with any event (%),[3]; 1.5 mg (n = 53),15 (28.3)
same,safety and tolerability,"[3]; 1.5 mg and 2.5 mg doses, elderly",safe and well-tolerated
same,sTST,[3]; [4],significant increase
same,sWASO,[3]; [4],significant decrease
same,subject-reported sleep onset latency,[3]; [4],significant reduction
same,Adjusted mean LPS,[3]; 1.5 mg,30.5 min
same,Adjusted mean TST,[3]; 1.5 mg,369.5 min
same,Adjusted mean WASO,[3]; 1.5 mg,86.2 min
same,LPS % change from placebo,[3]; 1.5 mg,34%
same,WASO % change from placebo,[3]; 1.5 mg,15%
same,total wake time hour by hour,"[3]; 1.5 mg, each hour up to hour 6",significantly reduced
same,TST % change from placebo,[3]; 1.5 mg,9%
same,WASO in the second half of the night (5-8 hours after lights out),[3]; 2.5 mg,significant decrease
same,increase of mean TST compared to placebo,[3]; 2.5 mg,56.4 min
same,"Dizziness, number of subjects (%)",[3]; 2.5 mg (n = 52),5 (9.6)
same,"Headache, number of subjects (%)",[3]; 2.5 mg (n = 52),3 (5.8)
same,"Somnolence, number of subjects (%)",[3]; 2.5 mg (n = 52),6 (11.5)
same,Number of subjects with any event (%),[3]; 2.5 mg (n = 52),19 (36.5)
same,Adjusted mean LPS,[3]; 2.5 mg,26.5 min
same,Adjusted mean TST,[3]; 2.5 mg,395 min
same,Adjusted mean WASO,[3]; 2.5 mg,65.3 min
same,LPS % change from placebo,[3]; 2.5 mg,43%
same,WASO % change from placebo,[3]; 2.5 mg,36%
same,TWT hour by hour,"[3]; 2.5 mg, every hour except hour 7",significantly reduced
same,TST % change from placebo,[3]; 2.5 mg,17%
same,"residual sedation, subject reported",[3]; 30 minutes post wake time (approximately 9 hours post dose),no residual sedation
same,KSS (subjective) versus placebo,[3]; day 8,no significant difference
same,"MSLT average sleep latency over all timepoints (2, 4, 6, 8 & 10 hours post wake time)","[3]; day 8, daytime function",increased
same,Benzodiazepine Withdrawal Questionnaire versus placebo,[3]; either dose,No significant difference
same,PVT or RAVLT versus placebo,"[3]; either dose, day 8",no significant differences
same,sleep architecture (PSG),"[3]; human, in vivo",generally preserved sleep architecture
same,subjective sleep quality,[3]; over all 7 nights of dosing,sustained improvement
